Test results: patent publication EP4692090A1 (Shanghai Fosun Pharmaceutical (Group) Co., Ltd., priority 2023, dated 2024)
Like-named read-outs stand apart in the source and are kept apart here.

What was measured:
[1] = system: LoVo cells; assay: LoVo cell proliferation assay (CellTiter-Glo); assay type: cell-based; details: maximum concentration 10 µM, 9 concentrations
Procedure: Test Example 2: LoVo cell proliferation assay
LoVo (ATCC, #CRL-229) cells in logarithmic growth phase were digested, counted, and plated into 96-well cell culture plates at 2,000 cells per well. The plates containing cells were incubated overnight at 37°C in a 5% CO2 incubator, and then test compounds with 3-fold gradient dilutions (maximum concentration: 10 µM, 9 concentrations) were added. DMSO was used as a blank control. After the LoVo cells containing the compounds or DMSO were incubated for an additional 5 days, an equal volume of CellTiter-Glo reagent (Promega, #7573) was added. After incubation at room temperature for 30 minutes, chemiluminescence was read using an Envision 2105 (PerkinElmer). The cell proliferation inhibition rate (%) for wells treated with each concentration of the compounds was calculated using the following formula. Then, with compound concentration as the horizontal axis and cell proliferation inhibition rate (%) as the vertical axis, GraphPad software was used to plot the data and determine the IC50 values of the test compounds. The results are shown in Table 2, wherein the IC50 ranges are defined as follows: A: ≤ 100 nM; 1000 nM ≥ B > 100 nM; C > 1000 nM.
Cell proliferation inhibition (%) = (1 - luminescence value of compound-treated group / average luminescence value of DMSO blank control group) × 100. Table 2. Inhibitory effect of compounds on LoVo growth

[2] = biological target: T1, ATR kinase (Homo sapiens, UniProt Q13535); assay: Inhibitory effect on ATR kinase activity (Caliper mobility shift, FAM-labeled RAD17 peptide substrate); assay type: biochemical
T1 construct: purchased Eurofins 14-953
T1 sequence (Q13535 whole entry): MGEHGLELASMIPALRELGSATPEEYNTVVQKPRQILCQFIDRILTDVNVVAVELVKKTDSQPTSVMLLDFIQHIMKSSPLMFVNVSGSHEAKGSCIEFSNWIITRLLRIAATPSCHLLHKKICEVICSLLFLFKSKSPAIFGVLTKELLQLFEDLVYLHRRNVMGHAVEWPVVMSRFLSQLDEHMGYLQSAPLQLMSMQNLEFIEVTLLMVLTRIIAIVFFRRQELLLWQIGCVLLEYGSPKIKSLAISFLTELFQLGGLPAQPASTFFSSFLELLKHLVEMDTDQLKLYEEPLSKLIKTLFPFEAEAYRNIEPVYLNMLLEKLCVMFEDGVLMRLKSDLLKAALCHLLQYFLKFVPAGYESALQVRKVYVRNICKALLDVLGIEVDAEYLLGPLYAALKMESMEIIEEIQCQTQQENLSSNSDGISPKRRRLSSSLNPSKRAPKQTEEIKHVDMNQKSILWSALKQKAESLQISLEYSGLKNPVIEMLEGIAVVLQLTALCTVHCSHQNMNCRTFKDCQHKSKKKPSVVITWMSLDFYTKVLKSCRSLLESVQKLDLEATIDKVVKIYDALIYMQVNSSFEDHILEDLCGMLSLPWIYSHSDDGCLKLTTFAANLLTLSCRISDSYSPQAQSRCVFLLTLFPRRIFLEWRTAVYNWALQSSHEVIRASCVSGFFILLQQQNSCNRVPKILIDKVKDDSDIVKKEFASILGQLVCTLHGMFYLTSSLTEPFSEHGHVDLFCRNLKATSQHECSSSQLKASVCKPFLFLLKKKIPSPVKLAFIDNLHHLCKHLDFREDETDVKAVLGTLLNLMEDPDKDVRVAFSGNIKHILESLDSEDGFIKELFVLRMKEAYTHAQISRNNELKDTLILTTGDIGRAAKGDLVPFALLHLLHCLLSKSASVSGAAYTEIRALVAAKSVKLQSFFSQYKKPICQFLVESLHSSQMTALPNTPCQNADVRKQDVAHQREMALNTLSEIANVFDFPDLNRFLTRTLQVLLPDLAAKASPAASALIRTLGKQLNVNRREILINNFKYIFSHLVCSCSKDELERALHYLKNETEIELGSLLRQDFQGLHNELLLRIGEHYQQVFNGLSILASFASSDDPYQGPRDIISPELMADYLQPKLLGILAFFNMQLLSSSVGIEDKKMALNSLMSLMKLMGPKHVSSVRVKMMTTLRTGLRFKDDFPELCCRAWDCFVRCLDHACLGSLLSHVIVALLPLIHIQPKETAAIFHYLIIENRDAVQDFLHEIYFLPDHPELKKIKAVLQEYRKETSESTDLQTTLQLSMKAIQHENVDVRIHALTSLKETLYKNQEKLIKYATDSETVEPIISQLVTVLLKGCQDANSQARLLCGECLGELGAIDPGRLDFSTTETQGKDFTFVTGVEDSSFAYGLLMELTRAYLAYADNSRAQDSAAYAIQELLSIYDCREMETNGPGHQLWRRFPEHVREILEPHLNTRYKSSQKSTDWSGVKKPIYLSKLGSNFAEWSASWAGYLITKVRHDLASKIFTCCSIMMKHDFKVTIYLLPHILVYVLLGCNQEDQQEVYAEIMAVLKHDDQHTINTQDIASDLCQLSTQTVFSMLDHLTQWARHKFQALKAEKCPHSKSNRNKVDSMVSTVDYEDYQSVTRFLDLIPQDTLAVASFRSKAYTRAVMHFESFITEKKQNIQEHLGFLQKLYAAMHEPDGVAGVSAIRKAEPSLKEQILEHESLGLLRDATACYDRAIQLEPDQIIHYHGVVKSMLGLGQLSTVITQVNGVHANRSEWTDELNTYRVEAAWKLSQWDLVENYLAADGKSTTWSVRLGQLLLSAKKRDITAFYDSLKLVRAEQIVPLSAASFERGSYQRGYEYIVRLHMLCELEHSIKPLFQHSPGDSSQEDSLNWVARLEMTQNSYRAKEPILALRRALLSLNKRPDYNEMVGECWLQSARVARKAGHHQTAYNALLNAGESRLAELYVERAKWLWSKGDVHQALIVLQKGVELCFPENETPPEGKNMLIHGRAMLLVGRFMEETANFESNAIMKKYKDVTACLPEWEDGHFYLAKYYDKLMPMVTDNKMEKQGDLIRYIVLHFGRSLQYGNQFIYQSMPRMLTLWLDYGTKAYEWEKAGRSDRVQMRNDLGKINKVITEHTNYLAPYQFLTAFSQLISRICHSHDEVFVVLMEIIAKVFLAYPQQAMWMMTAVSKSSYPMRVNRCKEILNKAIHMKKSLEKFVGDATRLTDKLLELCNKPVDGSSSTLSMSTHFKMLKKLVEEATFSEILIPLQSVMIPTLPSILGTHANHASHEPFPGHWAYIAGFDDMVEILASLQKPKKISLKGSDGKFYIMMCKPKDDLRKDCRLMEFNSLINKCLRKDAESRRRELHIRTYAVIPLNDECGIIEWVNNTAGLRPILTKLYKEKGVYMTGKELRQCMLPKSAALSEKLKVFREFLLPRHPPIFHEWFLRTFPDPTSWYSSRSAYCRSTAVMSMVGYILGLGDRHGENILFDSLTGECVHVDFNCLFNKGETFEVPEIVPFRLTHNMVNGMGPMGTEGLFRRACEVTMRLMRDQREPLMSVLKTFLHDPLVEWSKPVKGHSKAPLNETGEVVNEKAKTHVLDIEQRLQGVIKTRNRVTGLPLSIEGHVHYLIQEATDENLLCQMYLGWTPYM
T1 sequence (Q8WXE1 whole entry partner): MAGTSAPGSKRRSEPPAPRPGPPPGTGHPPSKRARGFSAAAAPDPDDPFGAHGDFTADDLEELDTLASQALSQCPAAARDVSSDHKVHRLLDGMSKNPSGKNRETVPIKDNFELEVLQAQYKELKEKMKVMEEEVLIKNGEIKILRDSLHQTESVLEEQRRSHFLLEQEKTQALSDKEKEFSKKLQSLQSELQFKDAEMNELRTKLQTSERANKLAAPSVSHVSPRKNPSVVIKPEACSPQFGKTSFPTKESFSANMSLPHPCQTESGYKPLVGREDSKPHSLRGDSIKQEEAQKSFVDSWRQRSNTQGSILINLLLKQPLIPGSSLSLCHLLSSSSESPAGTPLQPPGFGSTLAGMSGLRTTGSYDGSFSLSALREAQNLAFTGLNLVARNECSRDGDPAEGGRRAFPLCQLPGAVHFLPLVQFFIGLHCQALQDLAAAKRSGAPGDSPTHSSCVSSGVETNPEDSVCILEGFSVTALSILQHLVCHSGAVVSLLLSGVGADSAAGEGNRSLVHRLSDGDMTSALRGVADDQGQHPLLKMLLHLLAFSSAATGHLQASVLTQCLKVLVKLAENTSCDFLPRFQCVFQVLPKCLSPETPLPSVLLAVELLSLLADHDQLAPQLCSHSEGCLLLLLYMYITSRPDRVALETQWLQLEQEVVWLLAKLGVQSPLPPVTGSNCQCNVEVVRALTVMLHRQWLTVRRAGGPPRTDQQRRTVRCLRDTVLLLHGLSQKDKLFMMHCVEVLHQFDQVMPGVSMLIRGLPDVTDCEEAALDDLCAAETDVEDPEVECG
Procedure: Test Example 1: Inhibitory effect of the compounds of the present disclosure on ATR kinase activity
Test compounds to be tested were serially diluted with DMSO (maximum concentration 1 µM, 10 concentrations with 3-fold serial dilution) and added to the wells of a 384-well reaction plate (Corning, #4512). 1 nM ATR kinase (Eurofins, #14-953), 5 mM substrate (FAM-labeled RAD17 peptide, FAM-ASELPASQPQPFSAKKK), 5 mM ATP and the compounds with corresponding concentrations reacted in a kinase reaction solution (50 mM HEPES, pH 7.5; 0.0015% Brij-35; 10 mM MnCl2, total volume of 20 µL) at 28°C for 3 hours. The reaction was terminated by adding 30 µL of stop solution (100 mM HEPES, pH 7.5; 0.015% Brij-35; 0.2% Coating Reagent #3, PerkinElmer; 50 mM EDTA). The reaction plate was placed on a Caliper instrument (PerkinElmer) for testing. The relative inhibitory activity of each compound concentration group was calculated using the following formula: % Inhibition = (Conversion rate of the blank control group without compound added - Conversion rate of the test compound group) / (Conversion rate of the blank control group - […]). The IC50 values were calculated using GraphPad analysis and fitted. […] Table 1. Inhibitory effect (IC50) of compounds on ATR kinase activity.

[3] = Homo sapiens, LoVo, 120 h, read-out: LoVo IC50 (nM), LoVo cells, 2,000 cells per well, 5 days incubation, CellTiter-Glo
[4] = read-out: ATR kinase IC50, 1 nM ATR kinase (Eurofins), 28°C for 3 hours, maximum concentration 1 µM, 10 concentrations
[5] = ATR kinase IC50 (nM), 1 nM ATR kinase (Eurofins), 28°C for 3 hours, maximum concentration 1 µM, 10 concentrations
[6] = LoVo cells, 2,000 cells per well, 5 days incubation, CellTiter-Glo, read-out: LoVo IC50
[7] = 1 nM ATR kinase (Eurofins), 28°C for 3 hours, maximum concentration 1 µM, 10 concentrations, read-out: ATR kinase IC50
[8] = Homo sapiens, LoVo, 120 h, LoVo cells, 2,000 cells per well, 5 days incubation, CellTiter-Glo, read-out: LoVo IC50

| IC50 [2, 7] | IC50 [1, 8] | SMILES | IC50 [1, 3] | other results |
| --- | --- | --- | --- | --- |
| – | – | CC1NC(=O)Cn2nc(-c3cc[nH]n3)c3nc(N4CCOC[C@H]4C)cc1c32 (stereo partly drawn) [Compound 56, 6-methyl-4-((R)-3-methylmorpholinyl)-2-(1H-pyrazol-3-yl)-6,7-dihydro-1,3,7,9a-tetraazabenzo[cd]azulen-8(9H)-one] | > 1000 nM | IC50 [2, 4]: 10 to 100 nM |
| – | – | C[C@@H]1COCCN1c1cc2c3c(n1)c(-c1cc[nH]n1)nn3CCC(=O)N2Cc1cnn(C)c1 [Compound 99, (R)-6-((1-methyl-1H-pyrazol-4-yl)methyl)-4-(3-methylmorpholinyl)-2-(1H-pyrazol-3-yl)-8,9-dihydro-1,3,6,9a-tetraazabenzo[cd]azulene-7(6H)-one] | 100 to 1000 nM | IC50 [2, 4]: 10 to 100 nM |
| – | – | C[C@@H]1COCCN1c1cc2c3c(n1)c(-c1cc[nH]n1)nn3CCC(=O)N2CC(C)(C)O [Compound 95, (R)-6-(2-hydroxy-2-methylpropyl)-4-(3-methylmorpholinyl)-2-(1H-pyrazol-3-yl)-8,9-dihydro-1,3,6,9a-tetraazabenzo[cd]azulene-7(6H)-one] | 100 to 1000 nM | IC50 [2, 4]: 10 to 100 nM |
| – | – | C[C@@H]1COCCN1c1cc2c3c(nn(-c4cc[nH]n4)c3n1)CCNC2 [Compound 1, (R)-4-(2-(1H-pyrazol-3-yl)-6,7,8,9-tetrahydro-2H-1,2,3,7-tetraazabenzo[cd]azulen-4-yl)-3-methylmorpholine] | 100 to 1000 nM | IC50 [2, 5]: 100 to 1000 nM |
| < 10 nM | – | CC1c2cc(N3CCOC[C@H]3C)nc3c2c(nn3-c2cc[nH]n2)CCN1S(=O)(=O)C1CC1F (single isomer, unassigned) [Compound 151B] | – | IC50 [1, 6]: < 100 nM |
| 10 to 100 nM | 100 to 1000 nM | C#CC(C)N1CCc2nn(-c3cc[nH]n3)c3nc(N4CCOC[C@H]4C)cc(c23)C1 (stereo partly drawn) [Compound 21, (3R)-4-(7-(but-3-yn-2-yl)-2-(1H-pyrazol-3-yl)-6,7,8,9-tetrahydro-2H-1,2,3,7-tetraazabenzo[cd]azulen-4-yl)-3-methylmorpholine] | – | – |
| 10 to 100 nM | 100 to 1000 nM | C[C@@H]1COCCN1c1cc2c3c(nn(-c4cc[nH]n4)c3n1)CCN(C1CC(F)(F)C1)C2 [Compound 7, (R)-4-(7-(3,3-difluorocyclobutyl)-2-(1H-pyrazol-3-yl)-6,7,8,9-tetrahydro-2H-1,2,3,7-tetraazabenzo[cd]azulen-4-yl)-3-methylmorpholine] | – | – |
| 10 to 100 nM | < 100 nM | C[C@@H]1COCCN1c1cc2c3c(nn(-c4cc[nH]n4)c3n1)CCN(C1COC1)C2C1CC1 (stereo partly drawn) [Compound 135, (3R)-4-(6-cyclopropyl-7-(oxetan-3-yl)-2-(1H-pyrazol-3-yl)-6,7,8,9-tetrahydro-2H-1,2,3,7-tetraazabenzo[cd]azulen-4-yl)-3-methylmorpholine] | – | – |
| 1000 to 2500 nM | > 1000 nM | C[C@@H]1COCCN1c1cc2c3c(n1)c(-c1cc[nH]n1)nn3CCN2C [Compound 62, (R)-3-methyl-4-(5-methyl-1-(1H-pyrazol-3-yl)-4,5-dihydro-3H-2,2a,5,8-tetraazaacenaphthen-7-yl)morpholine] | – | – |
| 10 to 100 nM | 100 to 1000 nM | CCC1c2cc(N3CCOC[C@H]3C)nc3c2c(nn3-c2cc[nH]n2)CCN1S(=O)(=O)C1CC1 (single isomer, unassigned) [Compound 145A] | – | – |
| – | – | CC1c2cc(N3CCOC[C@H]3C)nc3c2c(nn3-c2cc[nH]n2)CCN1C(=O)C1(C#N)CC1 (single isomer, unassigned) [Compound 40B] | – | IC50 ([1]; read-out: LoVo IC50, LoVo cells, 2,000 cells per well, 5 days incubation, CellTiter-Glo): 100 to 1000 nM; IC50 [2, 4]: 10 to 100 nM |
| < 10 nM | < 100 nM | CN=S(C)(=O)N1CCc2nn(-c3cc[nH]n3)c3nc(N4CCOC[C@H]4C)cc(c23)C1C (single isomer, unassigned) [Compound 152A] | – | – |
| 10 to 100 nM | < 100 nM | C[C@@H]1COCCN1c1cc2c3c(n1)c(-c1cc[nH]n1)nn3CCCN2S(C)(=O)=O [Compound 121, (R)-3-methyl-4-(6-(methylsulfonyl)-2-(1H-pyrazol-3-yl)-6,7,8,9-tetrahydro-1,3,6,9a-tetraazabenzo[cd]azulen-4-yl)morpholine] | – | – |
| 10 to 100 nM | 100 to 1000 nM | CC1=NCCn2nc(-c3cc[nH]n3)c3nc(N4CCOC[C@H]4C)cc1c32 [Compound 58, (R)-3-methyl-4-(6-methyl-2-(1H-pyrazol-3-yl)-8,9-dihydro-1,3,7,9a-tetraazabenzo[cd]azulen-4-yl)morpholine] | – | – |
| – | – | C[C@@H]1COCCN1c1cc2c3c(n1)c(-c1cc[nH]n1)nn3CCC(=O)N2C1(C)COC1 [Compound 101, (R)-4-(3-methylmorpholinyl)-6-(3-methyloxetan-3-yl)-2-(1H-pyrazol-3-yl)-8,9-dihydro-1,3,6,9a-tetraazabenzo[cd]azulene-7(6H)-one] | 100 to 1000 nM | IC50 [2, 4]: 10 to 100 nM |
| – | – | C[C@@H]1COCCN1c1cc2c3c(n1)c(-c1cc[nH]n1)nn3CCC(=O)N2C1(C2CC2)CC1 [Compound 108, (R)-6-([1,1'-bis(cyclopropane)]-1-yl)-4-(3-methylmorpholinyl)-2-(1H-pyrazol-3-yl)-8,9-dihydro-1,3,6,9a-tetraazabenzo[cd]azulene-7(6H)-one] | 100 to 1000 nM | IC50 [2, 5]: < 10 nM |
| – | – | CCC(C)N1C(=O)CCn2nc(-c3cc[nH]n3)c3nc(N4CCOC[C@H]4C)cc1c32 (stereo partly drawn) [Compound 98, 6-(sec-butyl)-4-((R)-3-methylmorpholinyl)-2-(1H-pyrazol-3-yl)-8,9-dihydro-1,3,6,9a-tetraazabenzo[cd]azulene-7(6H)-one] | < 100 nM | IC50 [2, 4]: < 10 nM |
| – | – | C[C@@H]1COCCN1c1cc2c3c(nn(-c4cc[nH]n4)c3n1)CCOC21CCC1 [Compound 147, (R)-4-(3-Methylmorpholino)-2-(1H-pyrazol-3-yl)-8,9-dihydro-2H-7-oxa-1,2,3-triazaspiro[benzo[cd]azulene-6,1'-cyclobutane]-1(9a),2a,2a1(5a),4-tetraene] | < 100 nM | IC50 [2, 5]: < 10 nM |
| 10 to 100 nM | – | CC1c2cc(N3CCOC[C@H]3C)nc3c2c(nn3-c2cc[nH]n2)CCN1S(=O)(=O)C1(C)CC1 (single isomer, unassigned) [Compound 49B] | – | IC50 [1, 6]: 100 to 1000 nM |
| < 10 nM | – | CC(C)C1c2cc(N3CCOC[C@H]3C)nc3c2c(nn3-c2cc[nH]n2)CCN1C (single isomer, unassigned) [Compound 141B] | – | IC50 [1, 6]: < 100 nM |
| 100 to 1000 nM | 100 to 1000 nM | C[C@@H]1COCCN1c1cc2c3c(nn(-c4cc[nH]n4)c3n1)CCN(C1CC3CCC(C1)O3)C2 (stereo partly drawn) [Compound 6, (3R)-4-(7-(8-oxabicyclo[3.2.1]octan-3-yl)-2-(1H-pyrazol-3-yl)-6,7,8,9-tetrahydro-2H-1,2,3,7-tetraazabenzo[cd]azulen-4-yl)-3-methylmorpholine] | – | – |
| 10 to 100 nM | – | CC1c2cc(N3CCOC[C@H]3C)nc3c2c(nn3-c2cc[nH]n2)CCN1C1(C#N)CC1 (single isomer, unassigned) [Compound 42B] | – | IC50 [1, 6]: < 100 nM |
| 10 to 100 nM | 100 to 1000 nM | C[C@@H]1COCCN1c1cc2c3c(nn(-c4cc[nH]n4)c3n1)CCN(C1COC1)C2 [Compound 8, (R)-3-Methyl-4-(7-(oxetan-3-yl)-2-(1H-pyrazol-3-yl)-6,7,8,9-tetrahydro-2H-1,2,3,7-tetraazabenzo[cd]azulen-4-yl)morpholine] | – | – |
| 10 to 100 nM | – | CN=S(C)(=O)N1CCc2nn(-c3cc[nH]n3)c3nc(N4CCOC[C@H]4C)cc(c23)C1C (single isomer, unassigned) [Compound 152B] | – | IC50 [1, 6]: 100 to 1000 nM |
| 100 to 1000 nM | – | CC(C)C1(O)CCn2nc(-c3cc[nH]n3)c3nc(N4CCOC[C@H]4C)cc1c32 (single isomer, unassigned) [Compound 72B] | – | IC50 [1, 6]: 100 to 1000 nM |
